Data reported in US20230012368A1 (Hoffmann-La Roche Inc., priority 2018, published 2023).
Counter-ions that a name gives are not always drawn.

What follows are compounds tested on Acinetobacter baumannii ATCC 17978 (assay: Antimicrobial susceptibility testing: 90% growth inhibitory concentration (IC90) determination). Conditions: 90% growth inhibitory concentration; Acinetobacter baumannii ATCC17978; Iso-Sensitest broth, OD 600 nm over 16h; read-out: ATCC17978 IC90.
Type: cell-based
Protocol: Antimicrobial Susceptibility Testing:
90% Growth Inhibitory Concentration (IC90) Determination
The in vitro antimicrobial activity of the compounds was determined according to the following procedure:
The assay used a 10-points Iso-Sensitest broth medium to measure quantitatively the in vitro activity of the compounds against Acinetobacter baumannii ATCC 17978 and Acinetobacter baumannii ATCC 17961.
Stock compounds in DMSO were serially twofold diluted (e.g. range from 50 to 0.097 μM final concentration) in 384 wells microtiter plates and inoculated with 49 μl the bacterial suspension in Iso-Sensitest medium to have a final cell concentration of ˜5×10^(5) CFU/ml in a final volume/well of 50 ul/well. Microtiter plates were incubated at 35±2° C.
Bacterial cell growth was determined with the measurement of optical density at λ=600 nm each 20 minutes over a time course of 16h. Growth inhibition was calculated during the logarithmic growth of the bacterial cells with determination of the concentration inhibiting 50% (IC50) and 90% (IC90) of the growth.
Table 1 provides the 90% growth inhibitory concentrations (IC90) in micromoles per liter of the compounds of present invention obtained against the strain Acinetobacter baumannii ATCC17978 and Acinetobacter baumannii ATCC17961.

Row | SMILES | IC90 [nM]
1 | CCc1cc(Nc2nccn3c(-c4ccc(OC)c(F)c4F)cnc23)ccc1C(=O)NCC(O)CNC(=O)[C@@H](N)CCCNC(=N)N (mixture of isomers) [Example 405, rac-N-(3-((R)-2-amino-5-guanidinopentanamido)-2-hydroxypropyl)-4-((3-(2,3-difluoro-4-methoxyphenyl)imidazo[1,2-a]pyrazin-8-yl)amino)-2-ethylbenzamide diformate] | 360

Same assay, conditions: Acinetobacter baumannii, ATCC17978, 16 h, 90% growth inhibitory concentration; Acinetobacter baumannii ATCC17978; Iso-Sensitest broth, OD 600 nm over 16h; read-out: ATCC17978 IC90

Row | SMILES | IC90 [nM]
2 | Cc1cc(Nc2nccn3c(-c4ccc(OC(F)F)cc4)cnc23)ccc1C(=O)N(CCN1CCNCC1)C1CC1 [Example 284, N-cyclopropyl-4-[[3-[4-(difluoromethoxy)phenyl]im-idazo[1,2-a]pyrazin-8-yl]amino]-2-methyl-N-(2-piperazin-1-ylethyl)benzamide;hydrochlo-ride] | 2100
3 | CCc1cc(Nc2nccn3c(-c4ccc(Oc5ncccn5)c(F)c4F)cnc23)ccc1C(=O)NCC1CCN(CC2CCNC2)CC1 (stereo not shown) [Example 549, 4-((3-(2,3-difluoro-4-(pyrimidin-2-yloxy)phenyl)imidazo[1,2-a]pyrazin-8-yl)amino)-2-ethyl-N-((1-(pyrrolidin-3-ylmethyl)piperidin-4-yl)methyl)benzamide formate] | 490
4 | COc1ccc(-c2cnc3c(Nc4ccc(C(=O)NCCCCCCN)c(C)c4)nccn23)cc1 [Example 10, N-(6-aminohexyl)-4-((3-(4-methoxyphenyl)imidazo [1,2-a]pyrazin-8-yl)amino)-2-methylbenzamide hydrochloride] | 110
5 | Cc1cc(Nc2nccn3c(-c4ccc(OCC#N)c(F)c4F)cnc23)ccc1C(=O)NCCNC(=O)[C@@H]1C[C@](C)(O)CN1 [Example 133, (2S,4S)-N-[2-[[4-[[3-[4-(cyanomethoxy)-2,3-difluoro-phenyl]imidazo[1,2-a]pyrazin-8-yl]amino]-2-methyl-benzoyl]amino]ethyl]-4-hydroxy-4-methyl-pyrrolidine-2-carboxamide formate] | 90
6 | CCc1cc(Nc2nccn3c(-c4ccc(OC(F)F)c(F)c4F)cnc23)ccc1C(=O)NCCCO[C@H]1O[C@H](CO)[C@@H](O)[C@H](O)[C@H]1O [Example 328, 4-[[3-[4-(difluoromethoxy)-2,3-difluorophenyl]imidazo[1,2-a]pyrazin-8-yl]amino]-2-ethyl-N-[3-[(2S,3R,4S,5S,6R)-3,4,5-trihydroxy-6-(hydroxymethyl)oxan-2-yl]oxypropyl]benzamide] | 300

Results, then the compound that gave them:

Row | IC90 [nM] | SMILES
7 | 150 | CCc1cc(Nc2nccn3c(-c4ccc(OC)c(F)c4F)cnc23)ccc1C(=O)NCc1cnn(C)c1 [Example 555, 4-[[3-(2,3-difluoro-4-methoxy-phenyl)imidazo[1,2-a]pyrazin-8-yl]amino]-2-ethyl-N-[(1-methylpyrazol-4-yl)methyl]benzamide]
8 | 290 | COc1ccc(-c2cnc3c(Nc4ccc(C(=O)N[C@@H](C)CNC(C)=N)c(C)c4)nccn23)c(F)c1F [Example 488, 4-[[3-(2,3-difluoro-4-methoxyphenyl)imidazo[1,2-a]pyrazin-8-yl]amino]-#N!- [(2#S!)-1-(ethanimidoylamino)propan-2-yl]-2-methylbenzamide;formic acid]
9 | 310 | CCc1cc(Nc2nccn3c(-c4ccc(OC)c(F)c4F)cnc23)ccc1C(=O)NC[C@@H](C)NC(=O)[C@@H](N)CCCNC(=N)N [Example 122, N-[(2R)-2-[[(2S)-2-amino-5-guanidino-pentanoyl]amino]propyl]-4-[[3-(2,3-difluoro-4-methoxy-phenyl)imidazo[1,2-a]pyrazin-8-yl]amino]-2-ethyl-benzamide formate]
10 | 240 | CCc1cc(Nc2nccn3c(-c4ccc(OC)c(F)c4F)cnc23)ccc1C(=O)NCCNC(=O)[C@@H](N)CCCNC1=NCCN1 [Example 128, N-[2-[[(2S)-2-amino-5-(4,5-dihydro-1H-imidazol-2-ylamino)pentanoyl]amino]ethyl]-4-[[3-(2,3-difluoro-4-methoxy-phenyl)imidazo[1,2-a]pyrazin-8-yl]amino]-2-ethyl-benzamide formate]
